Source: patent US20010016568A1, “NOVEL METAL COMPLEXES” (priority 1997, published 2001)

T1: G-CSF receptor (Mus musculus, UniProt P40223)
T1 construct: they express endogenous G-CSF receptors; endogenous in cells; host or cells: NFS60 murine myeloid cells carrying a G-CSF-responsive luciferase reporter
T1 sequence (P40223 26-837): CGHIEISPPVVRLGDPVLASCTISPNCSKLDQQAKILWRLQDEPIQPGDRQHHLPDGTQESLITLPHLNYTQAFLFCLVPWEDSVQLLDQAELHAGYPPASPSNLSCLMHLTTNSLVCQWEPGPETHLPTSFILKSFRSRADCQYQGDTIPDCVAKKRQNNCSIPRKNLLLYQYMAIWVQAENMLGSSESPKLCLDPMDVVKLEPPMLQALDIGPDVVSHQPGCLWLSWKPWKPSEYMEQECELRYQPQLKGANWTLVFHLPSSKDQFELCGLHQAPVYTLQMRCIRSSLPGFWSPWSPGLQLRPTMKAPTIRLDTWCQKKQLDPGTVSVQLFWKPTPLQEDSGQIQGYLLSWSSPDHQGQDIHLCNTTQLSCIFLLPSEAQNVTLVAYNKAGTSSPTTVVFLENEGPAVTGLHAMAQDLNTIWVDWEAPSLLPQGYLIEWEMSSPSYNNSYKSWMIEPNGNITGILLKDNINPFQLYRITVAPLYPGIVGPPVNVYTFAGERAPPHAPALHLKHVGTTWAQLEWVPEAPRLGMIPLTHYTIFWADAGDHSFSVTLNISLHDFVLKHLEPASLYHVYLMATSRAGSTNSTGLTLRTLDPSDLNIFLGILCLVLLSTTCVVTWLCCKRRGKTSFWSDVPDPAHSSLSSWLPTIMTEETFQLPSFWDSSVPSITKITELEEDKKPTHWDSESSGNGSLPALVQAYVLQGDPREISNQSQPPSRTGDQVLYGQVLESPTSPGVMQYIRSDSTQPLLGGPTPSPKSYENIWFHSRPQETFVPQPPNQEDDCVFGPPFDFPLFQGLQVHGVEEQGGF

T2: G-CSF/Fc fusion protein (Mus musculus, UniProt P40223)
T2 construct: which contained the extracellular domain of the receptor presented in a dimeric form due to the Fc component
T2 sequence (P40223 26-626 limits assumed): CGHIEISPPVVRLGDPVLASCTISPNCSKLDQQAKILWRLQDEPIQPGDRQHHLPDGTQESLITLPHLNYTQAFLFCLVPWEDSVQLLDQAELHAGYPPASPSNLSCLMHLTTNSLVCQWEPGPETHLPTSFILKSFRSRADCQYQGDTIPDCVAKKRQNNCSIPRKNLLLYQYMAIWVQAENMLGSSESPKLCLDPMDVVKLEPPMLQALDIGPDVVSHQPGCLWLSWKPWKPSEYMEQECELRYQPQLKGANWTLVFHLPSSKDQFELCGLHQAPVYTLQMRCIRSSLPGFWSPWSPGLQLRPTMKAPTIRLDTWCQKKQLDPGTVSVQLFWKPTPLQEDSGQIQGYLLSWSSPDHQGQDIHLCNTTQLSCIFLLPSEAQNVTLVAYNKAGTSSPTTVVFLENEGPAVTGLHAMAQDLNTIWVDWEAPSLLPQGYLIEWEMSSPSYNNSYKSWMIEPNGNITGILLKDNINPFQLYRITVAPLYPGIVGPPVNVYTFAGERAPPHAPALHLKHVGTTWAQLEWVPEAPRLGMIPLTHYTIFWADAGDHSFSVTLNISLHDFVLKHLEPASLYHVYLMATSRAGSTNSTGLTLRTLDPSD

B1: recombinant G-CSF: the natural ligand (i.e. G-CSF or recombinant G-CSF) (protein, UniProt P09919 31-207, looked up)
Granulocyte …: TPLGPASSLPQSFLLKCLEQVRKIQGDGAALQEKLVSECATYKLCHPEELVLLGHSLGIPWAPLSSCPSQALQLAGCLSQLHSGLFLYQGLLQALEGISPELGPTLDTLQLDVADFATTIWQQMEELGMAPALQPTQGAMPAFASAFQRRAGGVLVASHLQSFLEVSYRVLRHLAQP

Key:
G-CSF receptor = molecular target: T1, G-CSF receptor; assay: Luciferase assay in the presence of EDTA (NFS60 cells); format: cell-based, murine
Description: FIG. 3 is an analysis of the effect of ethylenediaminetetraacetic acid (as used herein—EDTA) on the activity of Compound 1a (from Example 1) in NFS60 cells. Shown are luciferase response curves of Compound 1a at the indicated concentrations and in the presence of various concentrations of EDTA. […] The media in this assay contained a small amount (1-5 μM) of zinc(II).
FIGS. 7 and 8 show an analysis of the effect of metal chlorides on the EDTA depleted activity of Compound 1a on NFS60 cells. Shown are luciferase response curves as effected by the indicated metal chlorides. […] None of the other metals tested could overcome the inhibitory effect of EDTA.
In order to determine the requisiteness of zinc chelation of small organic molecules to agonist activity at dimeric cell-surface receptors, the above luciferase assay was performed on the G-CSF receptor in the presence of EDTA. EDTA is a strong metal chelator and had as its only effect, the removal of zinc from the ligand-receptor interaction.

G-CSF/Fc fusion protein = molecular target: T2, G-CSF/Fc fusion protein; assay: Isothermal titration microcalorimetry; format: binding; settings: only in the presence of zinc
Description: Zinc-mediated affinity of compounds from this invention for dimeric cell-surface receptors (specifically the G-CSF receptor) was measured by isothermal titration microcalorimetry experiments. Titration microcalorimetry detects binding as heat originating from the intrinsic bond forming enthalpy change. In this assay, the compounds were titrated first against zinc(II) alone. In a separate experiment, the compounds were then assayed in the presence of zinc and a dimeric cell-surface receptor/Fc fusion protein (a G-CSF/Fc fusion protein), which contained the extracellular domain of the receptor presented in a dimeric form due to the Fc component.

Molecule | effect of metal chlorides on the EDTA depleted luciferase activity (G-CSF receptor; 50 micromolar EDTA, metal chlorides (zinc, manganese, iron, copper, cobalt)) | effect of EDTA on luciferase activity (G-CSF receptor; EDTA at 1.2 millimolar, media contained 1-5 μM zinc(II)) | agonist activity in the presence of EDTA (G-CSF receptor; FIG. 3) | affinity for the fusion protein construct (G-CSF/Fc fusion protein) | effect of EDTA on luciferase activity (G-CSF receptor; EDTA at both 1.2 and 5 millimolar)
c1ccc(C23NC(=Nc4nc5ccccc5[nH]4)NC2(c2ccccn2)NC(=Nc2nc4ccccc4[nH]2)N3)nc1 (stereo not drawn) [Compound 1a, 2,5-Bis[2-benzimidazolylimino]-3a,6a-bis(2-pyridyl)-1,2,3,3a,4,5,6,6a-octahydroimidazo[4,5-d]imidazole] | Only zinc (II) at concentrations 0.5-10 micromolar can overcome the inhibition | antagonized | abrogated | high, submicromolar affinity | 
Cc1ccc2nc(N=C3NC4(c5ccccn5)NC(=Nc5nc6ccccc6[nH]5)NC4(c4ccccn4)N3)[nH]c2c1.O=C(O)C(F)(F)F.O=C(O)C(F)(F)F (stereo not drawn) [Compound 3a, 5-(2-benzimidazolylimino)-2-[(5-methyl-2-benzimidazolyl)imino]-3a,6a-bis(2-pyridyl)-1,2,3,3a,4,5,6,6a-octahydroimidazo[4,5-d]imidazole bis(trifluoroacetate) salt] |  |  |  | high, submicromolar affinity | 
B1 |  |  |  |  | little effect
